Source: patent publication US9814714B2, “Kinase modulation, and indications therefor” (Plexxikon Inc., priority 2015, dated 2017)
Read-outs that look alike come from different tables or passages of the source.

How the values were obtained:
[1] = molecular target: BRAF^V600E (Homo sapiens, UniProt P15056, V600E); assay: In vitro RAF kinase biochemical assay, BRAF V600E
Experimental: (§1) The in vitro RAF kinase activities were determined by measuring phosphorylation of a biotinylated substrate peptide as described in Tsai et al 2008. Formula II was tested against a panel of 287 kinases at concentrations of 1 μM in duplicate. […] The 287 kinases represent all major branches of the kinome phylogenetic tree. The inhibition screen of 287 kinases was carried out under contract as complementary panels at Invitrogen (Life Technologies, WI, USA) SelectScreen™ profiling service, DiscoverX (CA, USA) KINOMEScan™ service, and Reaction Biology Corporation (PA, USA) Kinase HotSpot^SM service.
(§2) BRAF proteins were produced in insect cells at Plexxikon Inc. as N-terminally His-tagged fragments encompassing the kinase domain.
(§3) 1) Test compounds in DMSO were serially diluted and plated into 384-well assay plates at 1 μL/well.
(§4) 2) Added were 15 μL/well of RAF enzyme and biotinylated-MEK1 substrate in kinase buffer.
(§5) 3) Added were 4 μL of ATP (500 μM) in kinase buffer.
(§6) 5) After a brief spin down, the plate was incubated at about room temperature for 40-50 minutes. 6) Added was 5 μL of Stop buffer at final EDTA 20 mM; anti-phospho-MEK1 1:2,500; donor/acceptor beads 3 μg/mL. 7) After brief spin down, the plate was incubated at room temperature for about 3 hours. 8) The plate was read on the Envision multilabel plate reader (Perkin Elmer). […] 2. Results

[2] = molecular target: BRAF_V600M (Homo sapiens, UniProt P15056, V600M); assay: RAF kinase biochemical assay, BRAF V600M; conditions: Table 3; ATP 100 μM
Experimental: as §2, §3, §4, §5, §6

[3] = system: MV-4-11 cells; assay: Growth assay (CellTiter-Glo), MV-4-11; type: cell-based; conditions: Homo sapiens, MV4-11, 72 h; biphenotypic B myelomonocytic leukemia; BRAF WT, RAS WT; 3 days
From the text: In order to determine the effects of Formula I on proliferation, a growth assay was established using melanoma cells (A375 and COLO829) and colorectal carcinoma cells (COLO205, HT-29) which each express the BRAFV600E mutation. To show selectivity over wild-type BRAF, several BRAF wild-type cell lines (K562, NOMO-1, MV-4-11 and ML-2) were also examined in the growth assay. The growth assay implemented the Promega CellTiter-Glo Luminescent Cell viability assay, which gives a luminescent readout that is proportional to the amount of ATP present in a cell sample. As ATP levels directly correlate with the number of viable cells, the luminescent signal can be used to determine the potency of Formula I to block the proliferation of the cell lines of interest.
1. 3,000 cells were plated in each well for cell lines A375, COLO205, COLO829, HT-29, and SK-MEL-3. 25,000 cells were plated in each well for cell lines K562, ML-2, MV-4-11, and
NOMO-1 of a 96-well tissue-culture-treated plate (Corning #3610) in a 50 μL volume. Cells were incubated overnight at 37° C.
2. Each test compound was plated as an 8-point titration, using 1:3 dilutions in DMSO. The maximum concentration was about 5 mM. Dilute DMSO and test compound of Formula I 1:250 in growth media.
3. […]
4. […] Luminescence was measured on a Tecan Safire plate reader. […]

[4] = molecular target: T1, CRAF (Homo sapiens, UniProt P04049, Y340D/Y341D); assay: In vitro RAF kinase biochemical assay, activated CRAF
T1 construct: GST (N); purchased Millipore 14-352; host or cells: insect cells
Experimental: as §3, §4, §5, §6

[5] = molecular target: BRAF_V600G (Homo sapiens, UniProt P15056, V600G); assay: RAF kinase biochemical assay, BRAF V600G; conditions: Table 3; ATP 100 μM
Experimental: as §2, §3, §4, §5, §6

[6] = system: cell model that expresses the same HRAS mutation prevalent in squamous cell tumors; assay: HRAS mutant cell model: growth and MAPK pathway response gene expression; type: cell-based
From the text: In a cell model that expresses the same HRAS mutation prevalent in squamous cell tumors from patients treated with RAF inhibitors, first-generation RAF inhibitors stimulate the in vitro and in vivo growth of the cells and induce the expression of MAPK pathway response genes including EGFR ligands. […] Based on these advantageous properties of the compound of either Formula I or Formula II, enhanced tolerability and, in turn, increased drug dosage may be obtained.

[7] = molecular target: BRAF (Homo sapiens, UniProt P15056); assay: In vitro RAF kinase biochemical assay, wild-type BRAF
Experimental: as §1
BRAF, residues L416 through H766 fused at the N-terminus with a GST tag, was produced in insect cells, and BRAF was purchased from Millipore (Catalog #14-530).
as §3, §4, §5, §6

[8] = system: pERK in SKBR3 cells (over-expression of HER2); assay: pERK levels in SKBR3; type: cell-based; conditions: human breast adenocarcinoma cell line
Experimental: The compound of Formula II was also evaluated in the human SCC cell line A431 and the human breast adenocarcinoma cell line SKBR3 as these cells achieve MAPK pathway activation by upstream signals feeding into RAS (through over-expression of EGFR and HER2, respectively).
Phospho-ERK AlphaScreen® assay: The degree of ERK phosphorylation was determined using an AlphaScreen® assay where an increase in ERK1/2 phosphorylation at Thr202/Tyr204 brought the donor and acceptor AlphaScreen® beads into close proximity, generating a signal for quantification. To determine the effects of compound treatment on phosphorylation of ERK1/2, cells were plated in a 96-well plate and treated with an 8-point titration of compound for one hour at 37° C. before lysis. To detect pERK, cell lysates were incubated with streptavidin-coated AlphaScreen® donor beads, anti-mouse IgG AlphaScreen® acceptor beads, a biotinylated anti-ERK1/2 rabbit antibody, and a mouse antibody that recognizes ERK1/2 only when it is phosphorylated on Thr202 and Tyr204. […] An increase in ERK1/2 phosphorylation at Thr202/Tyr204 brings the donor and acceptor AlphaScreen® beads into close proximity, generating a signal that can be quantified on an EnVision reader (Perkin Elmer).
Phospho-ERK immunoblot analysis: Western blots were performed by standard techniques and analyzed on an Odyssey Infrared Scanner (Li-COR Biosciences). […]

[9] = Table 1, average of more than 4 experiments, read-out: Biochemical IC50 BRAF^V600E
[10] = Table 1, average of more than 4 experiments

T1 sequence (P04049 307-648 Y340D/Y341D): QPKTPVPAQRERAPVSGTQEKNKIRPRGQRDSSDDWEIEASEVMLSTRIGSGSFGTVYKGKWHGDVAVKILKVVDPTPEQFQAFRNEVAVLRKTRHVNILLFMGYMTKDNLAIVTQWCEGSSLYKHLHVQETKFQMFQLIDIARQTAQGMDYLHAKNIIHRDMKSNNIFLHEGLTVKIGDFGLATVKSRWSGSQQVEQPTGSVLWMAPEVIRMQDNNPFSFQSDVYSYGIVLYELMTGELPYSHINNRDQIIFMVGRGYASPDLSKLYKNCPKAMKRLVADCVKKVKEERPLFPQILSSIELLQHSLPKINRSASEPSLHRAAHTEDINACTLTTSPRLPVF
Chain of BRAF^V600E (P15056 448-723 V600E): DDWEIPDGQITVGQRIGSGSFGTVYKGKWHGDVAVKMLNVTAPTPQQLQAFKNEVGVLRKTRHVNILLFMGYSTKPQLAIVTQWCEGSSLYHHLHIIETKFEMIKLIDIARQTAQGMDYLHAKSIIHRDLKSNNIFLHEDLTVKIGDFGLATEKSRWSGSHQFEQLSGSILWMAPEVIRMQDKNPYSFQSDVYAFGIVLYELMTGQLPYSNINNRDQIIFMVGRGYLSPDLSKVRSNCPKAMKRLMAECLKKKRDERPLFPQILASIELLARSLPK
Chain of BRAF (P15056 416-766): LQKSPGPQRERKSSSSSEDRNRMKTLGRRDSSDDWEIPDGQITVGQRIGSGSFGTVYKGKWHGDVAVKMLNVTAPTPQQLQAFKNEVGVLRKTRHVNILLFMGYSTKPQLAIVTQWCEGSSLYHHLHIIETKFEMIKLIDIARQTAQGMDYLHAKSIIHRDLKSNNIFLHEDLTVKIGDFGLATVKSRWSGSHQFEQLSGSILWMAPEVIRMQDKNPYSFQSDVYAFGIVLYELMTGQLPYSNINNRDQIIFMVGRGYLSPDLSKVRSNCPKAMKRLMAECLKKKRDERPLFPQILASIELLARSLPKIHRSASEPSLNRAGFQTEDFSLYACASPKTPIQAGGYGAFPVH
Chain of BRAF_V600M (P15056 432-726 V600M): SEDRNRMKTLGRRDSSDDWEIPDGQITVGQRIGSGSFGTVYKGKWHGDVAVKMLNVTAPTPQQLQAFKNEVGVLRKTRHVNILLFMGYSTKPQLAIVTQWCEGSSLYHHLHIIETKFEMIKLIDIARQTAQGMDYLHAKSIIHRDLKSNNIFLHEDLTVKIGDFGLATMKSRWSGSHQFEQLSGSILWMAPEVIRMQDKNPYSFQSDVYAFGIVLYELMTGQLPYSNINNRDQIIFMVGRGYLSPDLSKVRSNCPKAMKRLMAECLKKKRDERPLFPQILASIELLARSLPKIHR
Chain of BRAF_V600G (P15056 432-726 V600G): as the sequence (P15056 432-726 V600M) above, with M169G counted along it

| SMILES | IC50 against mutated BRAF kinases including BRAFV600E (in words) [1] | IC50 [1, 9] | IC50 ([1]; Table 3, ATP 100 μM, read-out: Biochemical IC50 BRAF_V600E) | IC50 [2] | IC50 [3] | IC50 [4, 10] | IC50 ([4]; Table 3, ATP 100 μM) | IC50 [5] | Stimulation of in vitro and in vivo growth and induction of MAPK pathway response genes including EGFR ligands (in words) [6] | IC50 [7, 10] | IC50 ([7]; Table 3, ATP 100 μM) | Change of pERK levels in SKBR3 (in words) [8] |
| --- | --- | --- | --- | --- | --- | --- | --- | --- | --- | --- | --- | --- |
| O=C(c1c(F)ccc(NS(=O)(=O)N2CC[C@@H](F)C2)c1F)c1c[nH]c2ncc(-c3cnc(C4CC4)nc3)cc12 [Formula I, (3R)—N-[3-[5-(2-cyclopropylpyrimidin-5-yl)-1H-pyrrolo[2,3-b]pyridine-3-carbonyl]-2,4-difluorophenyl]-3-fluoropyrrolidine-1-sulfonamide] | single digit | 4.2 nM | 4.4 nM | 9.8 nM | > 10000 nM | 91 nM | 22.6 nM | 6.3 nM | no such effect | 140 nM | 14.3 nM | – |
| CCN(C)S(=O)(=O)Nc1ccc(F)c(C(=O)c2c[nH]c3ncc(-c4cnc(C5CC5)nc4)cc23)c1F [Formula II, 5-(2-cyclopropylpyrimidin-5-yl)-3-[3-[[ethyl(methyl)sulfamoyl]amino]-2,6-difluoro-benzoyl]-1H-pyrrolo[2,3-b]pyridine] | single digit | 3.8 nM | – | – | – | 23 nM | – | – | no such effect | 14 nM | – | did not increase pERK levels |
